Columns and labels:
[1] = test system: miR-335-5p; assay: Relative expression of miR-335-5p by RT-PCR in endothelial cells; type: cell-based, human
Description: (§1) Human umbilical vein endothelial cells (HUVECs) were cultured in EBM-2 (Lonza) and THP-1 monocytes (ATCC) were grown in RPM. Human coronary microvascular endothelial cells (HCMECs) (Lonza) were cultured in EBM (Lonza). For experimental treatments, HUVECs and HMVECs (passages 3 to 8) were grown to 70-90% confluence. Simvastatin (Sigma) was activated to its active form as previously described. Atorvastatin (Sigma) was solubilized in DMSO and used at 10 μM concentration. Transient transfection of plasmids was performed with Fugene HD (Promega) according to the manufacturer's instructions. For small interfering RNA (Invitrogen) and miR-335-5p mimic (Dharmacon) transfections, each oligonucleotide formulation and respective controls (control siRNA: 12935112 (Invitrogen), miRNA mimic control: 0010000105 (Dharmacon), 50 nM) were complexed with Lipofectamine RNAiMAX (Invitrogen) according to the manufacturer's instructions.
(§2) Total RNA was extracted with the miRNeasy Mini kit (Qiagen). […] RT-PCR was performed with TaqMan probes for genes and miRNAs (ThermoFisher), or SYBR green assays for genes (Bio-Rad). All miRNA data were normalized to the internal control small RNAs U6 for human samples. For the mRNA samples, ribosomal 18S was used as an internal control. Individual RT-PCRs were performed on a […] (Bio-Rad) according to the manufacturer's instructions.

[2] = test system: MEST; assay: Relative mRNA expression of MEST by RT-PCR in endothelial cells; type: cell-based, human
Description: as §1, §2

[3] = test system: CHFR; assay: Relative mRNA and protein expression of CHFR (quantitative PCR, western blot)
[4] = test system: miR335; assay: miR335 inhibitor given to mice on 60% high fat diet; type: in vivo; details: 60% HFD, 5 mg/kg IP, vs control inhibitor
Description: FIG. 14 is a schematic outlining time course of an experiment comparing animals administered miR335 inhibitors to control, on a high fat diet. The mice were injected 5 mg/kg of miR335 inhibitor or its control twice a week for 4 weeks. Nonproprietary in vivo grade miRNA inhibitor purchased from Qiagen/Exiqon. Sequence: […] (SEQ ID NO:3; 100% complementary to […]).
The mice are subject to 6 weeks of 60% HFD. 5 mg/kg of miR335 inhibitor and its control was given to mice by IP injection. 2 weeks after, HFD was started.
The mir335−/− mice and Apoe−/− mice have been previously described. All animals were maintained on a C57BL/6 background. For mice fed a high-fat diet, mice were administered a 60% fat diet (TD-06414, Envigo) or 40% fat diet with 1.25% added cholesterol (DI2108C, Research Diet) for designated times before tissue and serum were collected.
Frozen 10-μm cryosections from the liver were washed with distilled water for 10 min. After the washing, sections were put into Eosin solution for 2 min. After rinsing with distilled water, sections were put into Hematoxylin solution for 5 min. After washing with distilled water for 15 min, the slides were mounted with DPX mountant (Sigma). Sections were imaged using bright-field microscopy.
Plasma was assessed for alanine aminotransferase (ALT) (Pointe Scientific) following the manufacturer's instructions. Briefly, 20 μl of each plasma sample was added in the 200 μl of the reagent and incubated at 37° C. After 1 min incubation, samples were put on the plate and the plate was read at 340 nm with a microplate reader (BioTek Synergy 2). The ALT values were calculated according to the manufacturer's instructions.

Compound	miR-335 expression ([1]; HCMECs)	miR-335 expression ([1]; HUVECs)	MEST expression ([2]; HCMECs)	MEST expression ([2]; HUVECs)	CHFR mRNA and protein expression ([3]; HCMECs)	CHFR mRNA and protein expression ([3]; HUVECs)	elevation in serum ALT associated with high fat diet [4]	fat accumulation in the liver [4]	liver histology [4]	liver weight [4]	weight gain associated with a high fat diet [4]
CC(C)c1c(C(=O)Nc2ccccc2)c(-c2ccccc2)c(-c2ccc(F)cc2)n1CC[C@@H](O)C[C@@H](O)CC(=O)O [atorvastatin]	significant decrease	significant decrease	significantly downregulated	significantly downregulated	significantly upregulated	significantly upregulated	–	–	–	–	–
miR335 inhibitor: Nonproprietary in vivo grade miRNA inhibitor purchased from Qiagen/Exiqon; sequence ACATTTTTCGTTATTGCTCTTGA (SEQ ID NO:3), complementary to miR-335-5p (in vivo grade miRNA inhibitor from Exiqon, chemistry not given here, further chemistry not given here)	–	–	–	–	–	–	attenuated	attenuated	preserved	decreased	suppressed

Reference: patent publication US20220008452A1, “COMPOSITIONS AND METHODS FOR TREATING OR PREVENTING NASH, NAFLD, DIABETES, ATHEROSCLEROSIS, AND/OR OBESITY” (YALE UNIVERSITY, priority 2018, published 2022)
